# Measurements as given in US9150530B2, “Esters of 4, 9-dihydroxy-naphtho [2, 3-b] furans for disease therapies” (Zhoushan Haizhongzhou Xinsheng Pharmaceuticals Co., Ltd., priority 2011, dated 2015).
# Experiments:
# [1] = system: QGY-7701; assay: Cell viability determination (MTT), QGY-7701; type: cell-based; conditions: QGY7701, QGY-7701, liver cancer, 48 hour incubation, read-out: Drug concentrations for 50% cell viability (IC50)
# Source text: (§1) Cell Culture: A549, DLD1, SW480, LOVO, HT-29, Hela, U-20S, MES-SA, SK-MEL-28, Panc-1, DU-145, CNE, U251, Eca-109, MGC80-3, QGY-7701, BEL-7404, PLC/PRF/5, Huh-7, and SGC-7901 cells were maintained in Dulbecco's Modified Eagle Medium (DMEM) (imported from Invitrogen, Carlsbad, Calif., USA) supplemented with 10% fetal bovine serum (FBS) (Si Ji Qing, Hangzhou, China) and 1% penicillin/streptomycin/amphotericin B (imported from Invitrogen, Carlsbad, Calif., USA).
# (§2) Cell Viability Determination: Popular MTT method (Archives of Biochemistry and Biophysics, 1993, 303: 474-482) was used to screen the in vitro effects of the invented drugs. Briefly, 5000 to 10000 cells were inoculated per well in a 96-well plate. After overnight incubation, drug was added to the wells at final concentration of 10 μM, […], 2.5 μM, 1.25 μM, or 1 μM, 0.75 μM, 0.5 μM and 0.25 μM in complete culture medium. Each dose level covered 4 equivalent wells. After 48 hour incubation, one tenth volume of 5 mg/mL MTT (thiazolyl blue tetrazolium bromide, Sigma-Aldrich) stock solution was added, and incubation was continued for 2 hours. Then medium was removed and 100 μL of isopropanol solution comprising 86% isopropanol, 4% aqueous 1 N HCl and 10% aqueous SDS solution (10% in concentration) was added. The absorbance of each well at 570 nm wavelength was measured by a micro-plate reader after gentle shaking for 20 minutes. Drug concentrations of 50% cell viability (IC50) were calculated by LOGIT method.
# [2] = system: Panc-1; assay: Cell viability determination (MTT), Panc-1; type: cell-based; conditions: Homo sapiens, Panc-1, pancreatic cancer, 48 hour incubation, read-out: Drug concentrations for 50% cell viability (IC50)
# Source text: as §1, §2
# [3] = system: U251; assay: Cell viability determination (MTT), U251; type: cell-based; conditions: Homo sapiens, U-251, U251, glioma, 48 hour incubation, read-out: Drug concentrations for 50% cell viability (IC50)
# Source text: as §1, §2
# [4] = system: DU-145; assay: Cell viability determination (MTT), DU-145; type: cell-based; conditions: Homo sapiens, DU-145, prostate cancer, 48 hour incubation, read-out: Drug concentrations for 50% cell viability (IC50)
# Source text: as §1, §2
# [5] = system: U-20S; assay: Cell viability determination (MTT), U-20S; type: cell-based; conditions: osteosarcoma, 48 hour incubation, read-out: Drug concentrations for 50% cell viability (IC50)
# Source text: as §1, §2
# [6] = system: A549; assay: Cell viability determination (MTT), A549; type: cell-based; conditions: Homo sapiens, A549, lung cancer, 48 hour incubation, read-out: Drug concentrations for 50% cell viability (IC50)
# Source text: as §1, §2
# [7] = system: Eca-109; assay: Cell viability determination (MTT), Eca-109; type: cell-based; conditions: Homo sapiens, Eca-109, esophageal cancer, 48 hour incubation, read-out: Drug concentrations for 50% cell viability (IC50)
# Source text: as §1, §2
# [8] = system: MGC80-3; assay: Cell viability determination (MTT), MGC80-3; type: cell-based; conditions: Homo sapiens, MGC-803, MGC80-3, stomach cancer, 48 hour incubation, read-out: Drug concentrations for 50% cell viability (IC50)
# Source text: as §1, §2
# [9] = system: SK-MEL-28; assay: Cell viability determination (MTT), SK-MEL-28; type: cell-based; conditions: Homo sapiens, SK-MEL-28, malignant melanoma, 48 hour incubation, read-out: Drug concentrations for 50% cell viability (IC50)
# Source text: as §1, §2
# [10] = system: CNE; assay: Cell viability determination (MTT), CNE; type: cell-based; conditions: Homo sapiens, nasopharyngeal cancer, 48 hour incubation, read-out: Drug concentrations for 50% cell viability (IC50)
# Source text: as §1, §2
# [11] = system: DLD1; assay: Cell viability determination (MTT), DLD1; type: cell-based; conditions: Homo sapiens, DLD-1, DLD1, colorectal cancer, 48 hour incubation, read-out: Drug concentrations for 50% cell viability (IC50)
# Source text: as §1, §2
# [12] = system: Hela; assay: Cell viability determination (MTT), Hela; type: cell-based; conditions: Homo sapiens, cervical cancer, 48 hour incubation, read-out: Drug concentrations for 50% cell viability (IC50)
# Source text: as §1, §2
# [13] = Metabolism in biological fluid (human whole blood, cancer cell lysate, liver microsomes, mouse oral uptake), HPLC; type: in vitro ADME; conditions: liver microsomes or mouse oral uptake system, 20 μM, 37° C.
# Procedure: Second, a major metabolite found after incubation of compound I, III, IV, VI or XIII in biological fluid, such as human whole blood, or cancer cell lysate, or liver microsomes, or mouse oral uptake system, is compound XII (FIG. 3). Similarly, a major metabolite found after incubation of compound V, VII or XIV in biological fluid is 2-(1-hydroxy-n-propyl)-naphtho[2,3-b]furan-4,9-dione (data not shown). Reduction of the position 2 substituent carbonyl group is part of quinone redox reaction as evidenced by the β-lapachone effect on the formation of compound XII in the compound XIII incubation mixture of human whole blood (part D of FIG. 3). The possible reaction mechanism is proposed as shown in scheme 7, in which the two electron reduction could be NQ01 catalyzed reduction or two successive cytochrome b5 reductase or p450 reductase catalyzed reaction. As substrate of these enzymes, β-lapachone could compete for the two electron or single electron reaction and thus reduced formation of the metabolism product.
# Crystalline or amorphous solid of compound was mixed with excipient and suspended in 0.5% carboxymethylcellulose (CMC) solution in a mortar. Then the mixture was orally administered into ICR mouse at the predetermined dosage. At the predetermined time point, blood was drawn from the mouse and stored in the vial containing heparin. The blood samples were centrifuged at 6,000 rpm for 10 min, and plasmas were separated. To each plasma sample, 9 times volume of acetonitrile/methyl trifluoromethanesulfonate (1000:1) or acetonitrile/concentrated HCl (1000:1) was added. The resulting mixtures were vortexed and incubated in dry ice for 30 minutes or in −20° C. freezer for 3 hours, then centrifuged, and supernatants were separated for HPLC analysis using gradient B.
# The biological systems for in vitro metabolism study include: human whole blood stabilized with sodium citrate; cancer cell lysate (obtained using freeze-thaw method, 10 mg/ml in protein concentration for use); liver microsomes with NADPH generation system (prepared according to the protocol provided by iPhase Pharma, Beijing, China);
# 10 mM of a compound of formula I or its analog or compound XIII in DMSO (however, compound VI was in DMF) was added into the biological system to a final concentration of 20 μM. The mixtures were incubated at 37° C. for predetermined time. To each sample, then 9 times volume of acetonitrile was added. The resulting mixtures were vortexed and incubated in dry ice for 30 minutes or in −20° C. freezer for 3 hours, then centrifuged, and supernatants were separated for HPLC analysis using gradient B.
# [14] = system: LOVO; assay: Cell viability determination (MTT), LOVO; type: cell-based; conditions: Homo sapiens, colorectal cancer, 48 hour incubation, read-out: Drug concentrations for 50% cell viability (IC50)
# Source text: as §1, §2
compound,measurement,setting,value
"CC(=O)Oc1c2ccccc2c(OC(=O)CNC(=O)OC(C)(C)C)c2oc(C(C)=O)cc12 [compound IV, 2-acetyl-4-acetoxy-9-[(tert-butoxycarbonyl)amino]acetoxy-naphtho[2,3-b]furan]",IC50,[1],3260 nM
same,IC50,[2],870 nM
same,IC50,[3],1140 nM
same,IC50,[4],250 to 500 nM
same,IC50,[5],750 to 1000 nM
same,IC50,[6],600 nM
same,IC50,[7],1630 nM
same,IC50,[8],1220 nM
same,IC50,[9],250 to 500 nM
same,IC50,[10],1330 nM
same,IC50,[11],300 nM
same,IC50,[12],860 nM
same,Major metabolite found after incubation in biological fluid,[13],compound XII
same,IC50,[14],1930 nM
